Reference: DBAASP
Values after ≈ are worked out from the molar mass of the structure shown. Values joined by “and” are separate entries in the source; they are usually repeats but may differ in a detail not shown here. Identical values can stand only once. Blank lines part the entries; values can stand above or below the compound they belong to.

Legend:
Assay in all cases: ≥ marks a high value that may be exact or a test limit, other limits are often not marked, values filed in µg/mL are converted to µM
[1] = test system: Klebsiella pneumoniae ATCC 43816
[2] = test system: Escherichia coli NCTC 10418
[3] = test system: Staphylococcus aureus NCTC 10788
[4] = test system: Candida albicans NCYC 1467
[5] = test system: Staphylococcus aureus NCTC 12493
[6] = test system: Enterococcus faecalis NCTC 12697
[7] = test system: Pseudomonas aeruginosa ATCC 27853
[8] = test system: Staphylococcus aureus ATCC BAA-1556
Escherichia coli BW25113 = test system: Escherichia coli BW25113
[9] = test system: Staphylococcus aureus SAP 0017
Enterococcus faecium = test system: Enterococcus faecium
Pseudomonas aeruginosa = test system: Pseudomonas aeruginosa
[10] = test system: Escherichia coli ATCC 25922
Streptococcus pneumoniae = test system: Streptococcus pneumoniae
[11] = test system: Staphylococcus aureus ATCC 43300
Klebsiella pneumoniae = test system: Klebsiella pneumoniae
Acinetobacter baumannii = test system: Acinetobacter baumannii
Proteus vulgaris = test system: Proteus vulgaris
[12] = test system: Staphylococcus epidermidis
Escherichia coli = test system: Escherichia coli
Streptococcus pyogenes = test system: Streptococcus pyogenes
Salmonella typhimurium = test system: Salmonella typhimurium
Bacillus subtilis = test system: Bacillus subtilis
[13] = test system: Bacillus cereus ATCC 11778
[14] = test system: Staphylococcus aureus ATCC 29213
[15] = test system: Salmonella enterica subsp. enterica serovar Typhimurium ATCC 14028
[16] = test system: Klebsiella aerogenes ATCC 13048
[17] = test system: Klebsiella pneumoniae ATCC 700603
[18] = test system: Staphylococcus aureus ATCC 700699
[19] = test system: Staphylococcus aureus ATCC 33591

MIC [1]: ≥ 32 µM
MIC [2]: 16 µM (≈ 31.2 µg/mL)
MIC [3]: 8 µM (≈ 15.6 µg/mL)
MIC [4]: 8 µM (≈ 15.6 µg/mL)
MIC [5]: 8 µM (≈ 15.6 µg/mL)
MIC [6]: ≥ 256 µM
MIC [7]: 64 µM (≈ 125 µg/mL)
SMILES: CC[C@H](C)[C@@H]1NC(=O)[C@H](C)NC(=O)[C@@H](NC(=O)[C@H](Cc2ccccc2)NC(=O)[C@@H](NC(=O)[C@H](CCCCN)NC(=O)[C@H](Cc2c[nH]c3ccccc23)NC(=O)[C@@H]2CCCN2C(=O)[C@H](CC(C)C)NC(=O)[C@H](Cc2ccccc2)NC(=O)[C@H](CCCCN)NC(=O)[C@@H](N)CCCCN)[C@@H](C)CC)CSSC[C@@H](C(=O)O)NC(=O)[C@H](CCCCN)NC(=O)[C@H](CCCCN)NC(=O)[C@H]([C@@H](C)O)NC1=O [KKFLPWKIFCAITKKC]

MIC [1]: ≥ 512 µM
MIC [2]: ≥ 512 µM
MIC [3]: 2 µM (≈ 4.22 µg/mL)
MIC [4]: ≥ 32 µM
MIC [5]: ≥ 64 µM
MIC [6]: 16 µM (≈ 33.8 µg/mL)
MIC [7]: > 512 µM
SMILES: CC[C@H](C)[C@H](NC(=O)[C@H](C)NC(=O)[C@H](CO)NC(=O)[C@@H](NC(=O)[C@@H](NC(=O)[C@H](CCCCN)NC(=O)[C@@H]1CCCN1C(=O)[C@@H](NC(=O)[C@H](CC(C)C)NC(=O)[C@H](CO)NC(=O)[C@H](CC(C)C)NC(=O)[C@@H](N)Cc1ccccc1)[C@@H](C)CC)[C@@H](C)CC)[C@@H](C)CC)C(=O)N[C@@H](CO)C(=O)N[C@@H](C)C(=O)N[C@@H](CC(C)C)C(=O)N[C@H](C(=O)N[C@@H](CCCCN)C(=O)N[C@@H](Cc1cnc[nH]1)C(=O)N[C@@H](Cc1ccccc1)C(N)=O)[C@@H](C)CC [FLSLIPKIISAISALIKHF]

MIC [8]: ≥ 100 µM
SMILES: CC[C@H](C)[C@H](NC(=O)[C@H](Cc1c[nH]c2ccccc12)NC(=O)[C@H](CCCN=C(N)N)NC(=O)[C@@H](N)CCCN=C(N)N)C(=O)N[C@@H](CCCN=C(N)N)C(=O)N[C@@H](Cc1c[nH]c2ccccc12)C(=O)N[C@@H](CC(C)C)C(N)=O [RRWIRWL]

MIC [8]: ≥ 100 µM
SMILES: CC(C)C[C@H](NC(=O)[C@H](CC(C)C)NC(=O)[C@H](CCCCN)NC(=O)[C@H](CC(C)C)NC(=O)[C@H](CC(C)C)NC(=O)[C@H](CC(C)C)NC(=O)[C@@H](N)CCCCN)C(N)=O [KLLLKLL]

MIC (Escherichia coli BW25113): 8 µM (≈ 19 µg/mL)
SMILES: CC[C@H](C)[C@H](NC(=O)[C@@H]1CCCN1C(=O)[C@H](CCCN=C(N)N)NC(=O)[C@H](CCCN=C(N)N)NC(=O)[C@H](Cc1ccccc1)NC(=O)[C@@H](N)CCCN=C(N)N)C(=O)N[C@@H](CCCN=C(N)N)C(=O)N[C@@H](CCCN=C(N)N)C(=O)N[C@@H](CCCN=C(N)N)C(=O)N1CCC[C@H]1C(=O)N[C@H](C(=O)N[C@@H](CCCN=C(N)N)C(=O)N1CCC[C@H]1C(=O)N1CCC[C@H]1C(=O)N[C@@H](Cc1c[nH]c2ccccc12)C(=O)N[C@@H](Cc1ccc(O)cc1)C(=O)N[C@@H](CCCN=C(N)N)C(=O)O)[C@@H](C)CC [RFRRPIRRRPIRPPWYR]

MIC [9]: 2 µM and 4 µM
SMILES: CC[C@H](C)[C@H](N)C(=O)N[C@@H](CC(C)C)C(=O)N[C@H](C(=O)N[C@@H](CCCN=C(N)N)C(=O)N[C@@H](Cc1c[nH]c2ccccc12)C(=O)N[C@H](C(=O)N[C@@H](CCCN=C(N)N)C(=O)N[C@@H](Cc1c[nH]c2ccccc12)C(=O)N[C@@H](CCCN=C(N)N)C(=O)N[C@H](C(=O)N[C@@H](CCC(N)=O)C(=O)N[C@@H](Cc1c[nH]c2ccccc12)C(N)=O)[C@@H](C)CC)[C@@H](C)CC)C(C)C [ILVRWIRWRIQW]

MIC (Enterococcus faecium): 8 µM (≈ 18.6 µg/mL)
MIC (Pseudomonas aeruginosa): 12 µM (≈ 27.9 µg/mL)
MIC [10]: 3 µM (≈ 6.97 µg/mL)
MIC (Streptococcus pneumoniae): 8 µM (≈ 18.6 µg/mL)
MIC [11]: 4 µM (≈ 9.3 µg/mL)
MIC (Klebsiella pneumoniae): > 16 µM
MIC (Acinetobacter baumannii): 9.3 µM (≈ 21.6 µg/mL)
SMILES: CC[C@H](C)[C@H](NC(=O)CNC(=O)[C@H](Cc1cnc[nH]1)NC(=O)CNC(=O)CN)C(=O)N[C@@H](CCCN=C(N)N)C(=O)N[C@@H](CCCN=C(N)N)C(=O)N[C@H](C(=O)N[C@H](C(=O)N[C@@H](CCCN=C(N)N)C(=O)N[C@@H](CCCCN)C(=O)N[C@H](C(=O)N[C@H](C(=O)N[C@@H](Cc1cnc[nH]1)C(=O)N[C@H](C(=O)N[C@H](C(=O)N[C@@H](CCCCN)C(=O)N[C@@H](CCCCN)C(=O)NCC(=O)NCC(=O)N[C@@H](CS)C(N)=O)[C@@H](C)CC)[C@@H](C)CC)[C@@H](C)CC)[C@@H](C)CC)[C@@H](C)CC)[C@@H](C)CC [GGHGIRRIIRKIIHIIKKGGC]

MIC (Proteus vulgaris): ≥ 64 µM
MIC (Pseudomonas aeruginosa): 64 µM (≈ 106 µg/mL)
MIC [12]: ≥ 64 µM
MIC (Escherichia coli): 8 µM (≈ 13.2 µg/mL)
MIC (Streptococcus pyogenes): ≥ 64 µM
MIC (Salmonella typhimurium): 0.5 µM (≈ 0.825 µg/mL)
MIC (Bacillus subtilis): ≥ 64 µM
SMILES: CC(C)C[C@H](NC(=O)[C@H](CCCN=C(N)N)NC(=O)[C@@H]1CCCN1C(=O)[C@H](Cc1cnc[nH]1)NC(=O)[C@@H]1CCCN1C(=O)[C@@H]1CCCN1C(=O)[C@H](CCCN=C(N)N)NC(=O)[C@@H]1CCCN1C(=O)[C@@H]1CCCN1C(=O)[C@H](Cc1cnc[nH]1)NC(=O)[C@@H]1CCCN1C(=O)[C@@H]1CCCN1C(=O)[C@H](CCCN=C(N)N)NC(=O)[C@@H]1CCCN1)C(=O)O [PRPPHPPRPPHPRL]

MIC [13]: ≥ 70.4 µM
MIC [14]: > 70.4 µM
MIC [15]: > 70.4 µM
MIC [10]: > 70.4 µM
MIC [16]: ≥ 70.4 µM
SMILES: CC[C@H](C)[C@H](N)C(=O)N[C@@H](CC(C)C)C(=O)NCC(=O)N[C@@H](CCCCN)C(=O)N[C@@H](C)C(=O)N[C@@H](Cc1c[nH]c2ccccc12)C(=O)N[C@@H](CCC(=O)O)C(=O)NCC(=O)N[C@@H](C)C(=O)N[C@@H](CCCCN)C(=O)N[C@@H](CO)C(=O)N[C@@H](CC(C)C)C(=O)N[C@@H](Cc1ccccc1)C(N)=O [ILGKAWEGAKSLF]

MIC [8]: ≥ 100 µM
SMILES: CC(C)C[C@H](NC(=O)[C@H](CC(C)C)NC(=O)[C@H](CC(C)C)NC(=O)[C@H](CCCCN)NC(=O)[C@H](CC(C)C)NC(=O)[C@@H](N)CC(C)C)C(=O)N[C@@H](CCCCN)C(N)=O [LLKLLLK]

MIC [8]: ≥ 100 µM
SMILES: CC(C)C[C@H](NC(=O)[C@H](CC(C)C)NC(=O)[C@H](CC(C)C)NC(=O)[C@H](CCCCN)NC(=O)[C@H](CC(C)C)NC(=O)[C@H](CCCCN)NC(=O)[C@H](CC(C)C)NC(=O)[C@H](CC(C)C)NC(=O)[C@@H](N)CC(C)C)C(N)=O [LLLKLKLLL]

MIC (Escherichia coli BW25113): 12 µM (≈ 27.1 µg/mL)
SMILES: CC[C@H](C)[C@H](NC(=O)[C@@H]1CCCN1C(=O)[C@H](CCCN=C(N)N)NC(=O)[C@H](CCCN=C(N)N)NC(=O)[C@H](Cc1ccccc1)NC(=O)[C@@H](N)CCCN=C(N)N)C(=O)N[C@@H](CCCN=C(N)N)C(=O)N[C@@H](CCCN=C(N)N)C(=O)N1CCC[C@H]1C(=O)N1CCC[C@H]1C(=O)N[C@H](C(=O)N[C@@H](CCCN=C(N)N)C(=O)N1CCC[C@H]1C(=O)N1CCC[C@H]1C(=O)N[C@@H](Cc1c[nH]c2ccccc12)C(=O)N[C@@H](Cc1ccc(O)cc1)C(=O)N1CCC[C@H]1C(=O)O)[C@@H](C)CC [RFRRPIRRPPIRPPWYP]

MIC [14]: > 100 µM
MIC [17]: > 100 µM
MIC [10]: > 100 µM
MIC [7]: > 100 µM
MIC [18]: ≥ 100 µM
MIC [19]: ≥ 100 µM
SMILES: CC[C@H](C)[C@H](NC(=O)[C@H](CC(=O)O)NC(=O)[C@H](CCCCN)NC(=O)[C@H](C)NC(=O)[C@H](C)NC(=O)CNC(=O)[C@H](CCCCN)NC(=O)[C@H](CC(C)C)NC(=O)[C@@H](NC(=O)[C@H](CC(=O)O)NC(=O)[C@@H](NC(=O)[C@@H](NC(=O)CN)C(C)C)C(C)C)[C@@H](C)CC)C(=O)N[C@@H](C)C(=O)NCC(=O)N[C@@H](Cc1cnc[nH]1)C(=O)N[C@@H](C)C(=O)N[C@@H](CO)C(=O)N[C@@H](CCCCN)C(=O)N[C@H](C(=O)N[C@@H](CCSC)C(=O)N[C@@H](CC(N)=O)C(=O)N[C@@H](CCCCN)C(=O)N[C@@H](CC(C)C)C(N)=O)C(C)C [GVVDILKGAAKDIAGHASKVMNKL]
